Assay results reported in patent US20140322252A1, “Peptides for Treating Alzheimers's Disease and Related Conditions” (priority 2013, published 2014).

How the values were obtained:
[1] = molecular target: T1, CCR8 (Homo sapiens, UniProt P51685); assay type: cell-based; conditions: for inhibition of CCL1 (I-309) mediated chemotaxis / CCR8 function: M2 type monocyte derived macrophages, CCL1 1 nM
T1 construct: required maturation with M-CSF for 48 hrs to up-regulate expression of CCR8; endogenous in cells; host or cells: human monocytes isolated by Ficoll-Percoll gradient, matured with M-CSF for 48 hours (M2-type macrophages)
T1 sequence (P51685 whole entry): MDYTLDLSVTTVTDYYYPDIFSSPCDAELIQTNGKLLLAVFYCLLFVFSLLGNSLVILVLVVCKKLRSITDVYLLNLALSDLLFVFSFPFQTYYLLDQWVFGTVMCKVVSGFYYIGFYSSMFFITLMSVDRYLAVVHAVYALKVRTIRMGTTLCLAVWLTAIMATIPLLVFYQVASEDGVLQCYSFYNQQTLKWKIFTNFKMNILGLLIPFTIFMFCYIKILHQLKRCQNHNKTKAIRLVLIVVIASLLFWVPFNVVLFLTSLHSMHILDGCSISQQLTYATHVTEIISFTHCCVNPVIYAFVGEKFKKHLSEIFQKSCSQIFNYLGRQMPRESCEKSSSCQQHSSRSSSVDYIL
Procedure: Human monocytes isolated by Ficoll-Percoll gradient were cultured in complete growth medium (RPMI1640, supplemented with 10% FBS and 4 mM L-glutamine) in presence of M-CSF for 48 hours. Resting monocytes, as freshly isolated, were not responsive to CCL1, which required maturation with M-CSF for 48 hrs to up-regulate expression of CCR8, so-called “M2” type macrophages. […] The data represent the mean of triplicate determinations of a representative experiment.

[2] = test system: cofilin-actin rods in hippocampal neurons
[3] = test system: APPSwDI/NOS2−/− transgenic mouse; conditions: 0.4 mg/kg p.o. once-a-day, 9 months of age, RAWM
Procedure: We tested yet a further all-D-amino acid modified peptide for oral bioavailability and protection to memory losses in an animal AD model.
Both Transgenic (CVN) and wild-type (WT) mice were used: WT mice were treated orally (p.o.) with vehicle; while CVN mice treated p.o. with either vehicle or treated p.o. with RAP-310, 0.4 mg/kg. At the age of 4.5 to 5 months the mice were subjected to once-a-day oral vehicle or RAP-310. After 1 month of treatment, starting at the age of 6 months, the mice were subjected to radial arm water maze testing.

[4] = test system: rats with partial ligation of the sciatic nerve; conditions: cited from earlier work
[5] = Pharmacokinetic study of RAP-103 in male Sprague Dawley rat, LC-MS/MS; assay type: in vivo
Procedure: A pharmacokinetic study of all-D-TTNYT (SEQ ID NO:2) (RAP-103) following intravenous and oral administration was conducted at a target dose level of 1 mg/kg in the male Sprague Dawley rat. The concentration of RAP-103 in each plasma and brain sample was measured using a suitable LC-MS/MS assay. The assay used was a research grade assay (RGA-1) which was established by assessing the accuracy, precision and the linearity of the method. Plasma concentrations generated were used to evaluate the pharmacokinetic parameters of all-D-TTNYT (SEQ ID NO:2) (RAP-103).
The dose formulation was administered intravenously to some animals as a slow bolus over ca 30 s via the tail vein and to a different group of animals orally via gastric gavage at a target dose volume of 1 mL/kg, to achieve a target dose level of 1 mg/kg. The dose volume administered was calculated according to the bodyweight of the animal on the day of dosing. The weight of administered dose was recorded. […] Results of the study show oral boavailibity of the all-D-peptide was achieved, results are in Table 1

[6] = molecular target: CCR2 (Homo sapiens, UniProt P41597); conditions: published, Padi 2012; cited from earlier work
Chain of CCR2 (P41597 whole entry): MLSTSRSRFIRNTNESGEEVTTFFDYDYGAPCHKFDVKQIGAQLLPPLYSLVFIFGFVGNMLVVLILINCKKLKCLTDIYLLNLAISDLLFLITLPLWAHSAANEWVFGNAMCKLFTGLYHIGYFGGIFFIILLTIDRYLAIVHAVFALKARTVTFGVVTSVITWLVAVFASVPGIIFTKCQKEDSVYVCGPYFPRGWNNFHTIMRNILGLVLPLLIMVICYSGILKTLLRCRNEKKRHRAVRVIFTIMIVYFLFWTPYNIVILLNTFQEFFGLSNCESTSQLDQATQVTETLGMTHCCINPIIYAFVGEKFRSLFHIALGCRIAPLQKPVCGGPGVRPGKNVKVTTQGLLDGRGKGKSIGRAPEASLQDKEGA

[7] = test system: NBM lesioned aged Sprague-Dawley rats; conditions: bilateral NBM lesions, 1 mg IP daily for 5 months; cited from earlier work
[8] = test system: CCL2 (MCP-1) chemotaxis of human monocytes; assay: CCL2-mediated human monocyte chemotaxis (FIG. 1); assay type: cell-based; conditions: FIG. 1, direct comparison among all RAPs
Excerpt: Triplicate determinations were made and results are expressed as the mean plus or minus SEM. The experiment shown is a direct comparison among all RAPs. Statistical analysis was by unpaired t-test, with significance set at the p<0.01 (*) level for difference from CCL2 only chemotaxis.

[9] = test system: LPS-infused rats; conditions: 0.01 mg/kg, s.c., 14 days, cited from earlier work

Compound	potency to block CCR8 compared with DAPTA ([1]; FIG. 3)	inhibition of CCL1 (I-309) mediated chemotaxis / CCR8 function [1]	EC50 [2] [pM]	block of TNFα caused cofilin-actin rod stress response [2]	less errors in block 5 compared to CVN vehicle treated mice [3] [%]	less errors in sum scores for Day 1 compared to CVN vehicle treated mice [3] [%]	already established hypersensitivity ([4]; 0.2-1 mg/kg, days 8 to 12)	development of thermal hyperalgesia ([4]; oral 0.05-1 mg/kg for 7 days)	mechanical allodynia ([4]; oral 0.05-1 mg/kg for 7 days)	spinal microglial activation and monocyte infiltration ([4]; peripheral nerve injury)	concentration in male rat plasma ([5]; intravenous, 1 mg/kg, nominal time 0.5 h, individual animals) [ng/mL]	time of peak plasma levels ([5]; rat, 1 mg/kg) [min]	detection in plasma ([5]; rat, 5 minutes (0.083 hrs) after dosing, continues at 1 hr)	activity to block MCP-1 human monocyte chemotaxis [6]	lesion-induced decreases in cortical thickness [7]	loss of large neurons in layer V [7]	potency to block CCL2 (MCP-1) chemotaxis [8]	potency to block CCL2 (MCP-1) chemotaxis ([8]; listed as RAP-101)	number of activated microglia and astrocytes ([9]; vs vehicle)	number of immunoreactive cells expressing NfKb [9]
C[C@H](O)[C@@H](NC(=O)[C@@H](Cc1ccc(O)cc1)NC(=O)[C@@H](CC(N)=O)NC(=O)[C@H](NC(=O)[C@H](NC(=O)[C@H](NC(=O)[C@@H](CO)NC(=O)[C@@H](C)N)[C@H](C)O)[C@H](C)O)[C@H](C)O)C(=O)O [RAP-310]	comparable potency	Inhibit	~0.1	comparably blocked	50	30														
C[C@H](O)[C@@H](N)C(=O)N[C@@H](C(=O)N[C@H](CC(N)=O)C(=O)N[C@H](Cc1ccc(O)cc1)C(=O)N[C@@H](C(=O)O)[C@H](C)O)[C@H](C)O [RAP-103, All-D-TTNYT]							reverses	inhibits	fully prevents	reduce	561	10 to 15	detected	block						
D-ala1-STTTNYT-NH2 [DAPTA]		Inhibit													prevented or attenuated	attenuated	most potent	greater potency	dramatically reduced	reduced
